Experimental data as given in paper PMC11949107, “Polyunsaturated fatty acids and their endocannabinoid-related metabolites activity at human TRPV1 and TRPA1 ion channels expressed in HEK-293 cells” (PeerJ, 2025).
Values joined by “and” are separate entries in the source; they are usually repeats but may differ in a detail not shown here. Equal values may be shown once.

Experiments:
human TRPV1 = biological target: T1, human TRPV1 (Homo sapiens, UniProt Q8NER1); experiment: Calcium 5 dye [Ca]i assay in HEK-293 Flp-In T-REx cells expressing TRPV1 (agonist response); format: cell-based; details: for Elevation of [Ca]i in HEK-293 TRPV1 cells compared with HEK-293 EV cells / Change of Ca5 fluorescence, Mean ± SEM, TRPV1 (10 µM): 10 µM; for Change of Ca5 fluorescence, Mean ± SEM, TRPV1 (10 µM): percentage of predrug baseline; for Maximal TRPV1 response compared with the highest concentration of capsaicin: 30 µM vs capsaicin 10 µM; for Emax ± SEM % TRPV1 (30 µM): highest tested concentration (30 µM) or derived from concentration-response curves (DHEA, AEA, NADA, capsaicin); for Change in Ca5 fluorescence, individual experiments (CRC raw data): TRPV1 cells; for TRPV1 response, Mean± SEM (N): 30 µM, one-way ANOVA comparison with capsaicin 10 µM
T1 construct: Life Technologies (cells); host or cells: Flp-In T-REx HEK-293
Outline: (§1)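 Tetracycline-induced (1 µg ml^−1, 4 h) HEK-293 T-REx cells loaded with Calcium 5 dye plus 1.25 mM probenecid for 1 h; agonist added after 1 min baseline (0.1% DMSO final), fluorescence (485/525 nm) read every 2 s for 5 min at 37 °C. Response as % change from baseline, solvent-subtracted; EC50/Emax from three-parameter logistic fit, given as pEC50.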

human TRPA1 = biological target: T2, human TRPA1 (Homo sapiens, UniProt O75762); experiment: Calcium 5 dye [Ca]i assay in HEK-293 Flp-In T-REx cells expressing TRPA1 (agonist response); format: cell-based; details: for Elevation of [Ca]i in HEK-293 TRPA1 cells compared with HEK-293 EV cells: 10 µM (cinnamaldehyde 300 µM); for Change of Ca5 fluorescence, Mean ± SEM, TRPA1 (10 µM): HEK-293 TRPA1 cells, percentage of predrug baseline; for TRPA1 activation at the highest concentration tested / TRPA1 response compared with the highest concentration of cinnamaldehyde (300 µM) / TRPA1 response, Mean± SEM (N): 30 µM; for TRPA1 response, Mean± SEM (N): one-way ANOVA comparison with cinnamaldehyde 300 µM; for Emax ± SEM % TRPA1 (30 µM): highest tested concentration (30 µM) or derived from concentration-response curves (cinnamaldehyde); for Change in Ca5 fluorescence, individual experiments (CRC raw data): TRPA1 cells
T2 construct: Life Technologies (cells); host or cells: Flp-In T-REx HEK-293
Outline: as §1

HEK-293 EV cells = experiment: Calcium 5 dye [Ca]i assay in HEK-293 empty vector (EV) cells; format: cell-based, human; details: 10 µM; HEK-293 EV cells; percentage of predrug baseline
Outline: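 Tetracycline at 1 µg ml^−1 was added 4 h before testing; cells were loaded with Calcium 5 dye for 1 h and read at 37 °C, with drug added after 1 min baseline (final 0.1% DMSO). The response was the % change from the 60 s baseline after solvent subtraction, and EC50/Emax came from a three-parameter logistic fit, reported as pEC50.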

T2 sequence (O75762 whole entry): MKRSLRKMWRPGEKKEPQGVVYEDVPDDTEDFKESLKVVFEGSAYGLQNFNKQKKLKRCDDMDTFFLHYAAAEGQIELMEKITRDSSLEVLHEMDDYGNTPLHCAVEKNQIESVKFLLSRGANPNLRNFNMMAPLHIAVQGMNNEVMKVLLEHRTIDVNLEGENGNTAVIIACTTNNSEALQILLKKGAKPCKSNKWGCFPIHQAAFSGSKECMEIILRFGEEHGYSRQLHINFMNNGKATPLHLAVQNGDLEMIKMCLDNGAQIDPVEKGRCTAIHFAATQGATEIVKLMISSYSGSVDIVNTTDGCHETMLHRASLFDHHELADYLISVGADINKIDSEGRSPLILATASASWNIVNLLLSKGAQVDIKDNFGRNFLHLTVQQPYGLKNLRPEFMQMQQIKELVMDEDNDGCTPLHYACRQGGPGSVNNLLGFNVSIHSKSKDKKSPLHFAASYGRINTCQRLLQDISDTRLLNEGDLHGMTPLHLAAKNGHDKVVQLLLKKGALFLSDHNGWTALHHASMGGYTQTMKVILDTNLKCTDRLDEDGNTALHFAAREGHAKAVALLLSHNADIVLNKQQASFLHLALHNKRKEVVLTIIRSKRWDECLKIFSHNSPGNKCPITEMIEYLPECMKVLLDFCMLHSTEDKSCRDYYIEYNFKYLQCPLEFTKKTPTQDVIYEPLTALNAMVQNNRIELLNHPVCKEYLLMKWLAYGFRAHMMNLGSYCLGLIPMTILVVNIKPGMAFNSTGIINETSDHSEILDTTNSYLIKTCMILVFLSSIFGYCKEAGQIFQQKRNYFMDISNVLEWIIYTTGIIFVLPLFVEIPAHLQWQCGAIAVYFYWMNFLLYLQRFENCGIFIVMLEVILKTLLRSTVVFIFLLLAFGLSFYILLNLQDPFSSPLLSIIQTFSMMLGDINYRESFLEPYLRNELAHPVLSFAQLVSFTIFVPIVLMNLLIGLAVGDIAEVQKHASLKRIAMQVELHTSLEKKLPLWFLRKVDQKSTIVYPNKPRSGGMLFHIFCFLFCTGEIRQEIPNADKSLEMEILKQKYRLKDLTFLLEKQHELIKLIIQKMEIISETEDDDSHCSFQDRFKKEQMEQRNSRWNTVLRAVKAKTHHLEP
T1 sequence (Q8NER1 whole entry): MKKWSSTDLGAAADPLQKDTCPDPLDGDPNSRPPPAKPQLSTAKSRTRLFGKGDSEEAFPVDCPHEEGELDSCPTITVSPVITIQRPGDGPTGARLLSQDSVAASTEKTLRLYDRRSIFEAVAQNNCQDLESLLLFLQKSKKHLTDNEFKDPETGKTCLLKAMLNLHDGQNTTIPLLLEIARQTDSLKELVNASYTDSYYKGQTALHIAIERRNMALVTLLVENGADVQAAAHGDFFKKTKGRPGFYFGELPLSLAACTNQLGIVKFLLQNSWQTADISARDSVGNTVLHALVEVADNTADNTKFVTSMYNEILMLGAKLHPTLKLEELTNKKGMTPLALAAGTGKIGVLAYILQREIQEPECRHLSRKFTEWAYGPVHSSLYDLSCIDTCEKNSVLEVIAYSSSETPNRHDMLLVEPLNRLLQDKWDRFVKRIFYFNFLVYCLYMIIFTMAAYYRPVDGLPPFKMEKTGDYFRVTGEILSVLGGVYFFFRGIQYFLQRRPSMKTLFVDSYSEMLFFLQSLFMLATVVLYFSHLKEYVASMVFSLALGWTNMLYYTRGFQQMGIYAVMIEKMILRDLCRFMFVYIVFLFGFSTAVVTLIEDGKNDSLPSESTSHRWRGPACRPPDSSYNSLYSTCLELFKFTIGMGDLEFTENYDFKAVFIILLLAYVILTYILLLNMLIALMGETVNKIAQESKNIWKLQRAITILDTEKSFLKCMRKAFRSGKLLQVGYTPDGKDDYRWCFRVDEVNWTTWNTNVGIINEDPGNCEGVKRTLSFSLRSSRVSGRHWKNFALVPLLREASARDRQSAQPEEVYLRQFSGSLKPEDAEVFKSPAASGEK

SMILES | Elevation of [Ca]i in HEK-293 TRPV1 cells compared with HEK-293 EV cells (human TRPV1) | Change of Ca5 fluorescence, Mean ± SEM, TRPV1 (10 µM) (human TRPV1; HEK-293 TRPV1 cells) [%] | Emax ± SEM % TRPV1 (30 µM) (human TRPV1) [%] | Change in Ca5 fluorescence, individual experiments (CRC raw data) (human TRPV1; log concentration -4.52288 (M)) | Change in Ca5 fluorescence, individual experiments (CRC raw data) (human TRPV1; log concentration -5 (M)) | Change in Ca5 fluorescence, individual experiments (CRC raw data) (human TRPV1; log concentration -5.52288 (M)) | Change in Ca5 fluorescence, individual experiments (CRC raw data) (human TRPV1; log concentration -6 (M)) | Change in Ca5 fluorescence, individual experiments (CRC raw data) (human TRPV1; log concentration -6.52288 (M)) | Change in Ca5 fluorescence, individual experiments (CRC raw data) (human TRPV1; log concentration -7 (M)) | Elevation of [Ca]i in HEK-293 TRPA1 cells compared with HEK-293 EV cells (human TRPA1) | Change of Ca5 fluorescence, Mean ± SEM, TRPA1 (10 µM) (human TRPA1) [%] | TRPA1 activation at the highest concentration tested (human TRPA1) | TRPA1 response compared with the highest concentration of cinnamaldehyde (300 µM) (human TRPA1) | TRPA1 response, Mean± SEM (N) (human TRPA1) | Emax ± SEM % TRPA1 (30 µM) (human TRPA1) [%] | Change in Ca5 fluorescence, individual experiments (CRC raw data) (human TRPA1; log concentration -4.52288 (M)) | Change in Ca5 fluorescence, individual experiments (CRC raw data) (human TRPA1; log concentration -5 (M)) | Change in Ca5 fluorescence, individual experiments (CRC raw data) (human TRPA1; log concentration -5.52288 (M)) | Change in Ca5 fluorescence, individual experiments (CRC raw data) (human TRPA1; log concentration -6 (M)) | Change in Ca5 fluorescence, individual experiments (CRC raw data) (human TRPA1; log concentration -6.52288 (M)) | further results
CC/C=C\C/C=C\C/C=C\C/C=C\C/C=C\C/C=C\CCC(=O)NCCO [DHEA, docosahexaenoyl ethanolamide] | significantly greater | 266 ± 51 | 439 ± 81 | 421.157 and 266.746 and 225.074 and 238.504 and 226.816 and 459.662 | 358.299 and 237.035 and 372.804 and 59.1046 and 202.763 and 364.608 | 143.051 and 24.824 and 40.8645 and 14.285 and 22.6333 and 69.1812 | 82.6736 and 2.152 and 3.016 and 2.309 and 4.337 and 4.334 | 7.224 and 2.186 and 3.68 and 2.567 and 2.837 and 6.478 | 5.718 and 2.642 and 2.583 and 2.209 and 5.355 and 1.543 | significantly greater | 107 ± 50 | activated TRPA1 | did not differ | 335± 60 | 335 ± 35 | 349.992 and 313.567 and 315.432 and 199.601 and 366.143 and 464.813 | 252.775 and 33.0558 and 3.468 and 15.2698 and 63.0111 and 272.344 | 2.533 and 3.173 and 1.452 and 10.0203 and 10.0547 and 73.8394 | 2.6845 and 3.9598 and 1.663 and 5.882 and 4.143 and 4.307 | 2.976 and 11.5941 and 1.922 and 8.318 and 8.221 and 6.083 | Maximal TRPV1 response compared with the highest concentration of capsaicin (human TRPV1): did not differ; pEC50 ± SEM TRPV1 (human TRPV1; HEK-293 TRPV1 cells, EC50 in molar): 5 ± 0.2; Change in Ca5 fluorescence, individual experiments (CRC raw data) (human TRPA1; log concentration -7 (M)): 8.586 and 11.8101 and 8.8764 and 6.208 and 4.123 and 2.766; Change of Ca5 fluorescence, Mean ± SEM, EV (10 µM) (HEK-293 EV cells): 10 ± 3%
CC/C=C\C/C=C\C/C=C\C/C=C\C/C=C\CCCC(=O)NCCO [EPEA, eicosapentaenoyl ethanolamide] | did not produce a notable change | 15 ± 8 | 51 ± 22 | 12.8698 and 124.435 and 117.092 and 13.2242 and 28.647 and 8.814 | 6.443 and 53.2228 and 9.9712 and 11.9185 and 2.5776 and 3.793 | 5.664 and 10.8694 and 3.209 and 12.2234 and 1.072 and 3.982 | 2.913 and 5.488 and 1.312 and 9.151 and 2.704 and 1.489 | 3.773 and 2.311 and 2.08 and 9.31 and 0.4729 and 1.052 | 7.0578 and 1.12 and 6.0854 and 9.074 and 2.61 and 2.864 | did not produce a change | 50 ± 40 | activated TRPA1 | significantly smaller | 274± 60 | 274 ± 27 | 345.33 and 330.592 and 234.198 and 185.482 and 229.324 and 316.639 | 250.67 and 8.984 and 4.299 and 4.23 and 22.2267 and 8.362 | 6.789 and 4.391 and 2.799 and 3.328 and 5.534 and 8.248 | 2.3186 and 6.477 and 1.9747 and 2.489 and 1.415 and 7.402 | 2.468 and 7.816 and 1.613 and 1.7019 and 8.366 and 8.252 | TRPV1 response, Mean± SEM (N) (human TRPV1): 51± 56; Change in Ca5 fluorescence, individual experiments (CRC raw data) (human TRPA1; log concentration -7 (M)): 1.245 and 5.751 and 2.391 and 4.163 and 4.153 and 8.202; Change of Ca5 fluorescence, Mean ± SEM, EV (10 µM) (HEK-293 EV cells): 3 ± 1%
CCCCC/C=C\C/C=C\C/C=C\CCCCC(=O)NCCO [γ-LEA, γ-linolenoyl ethanolamide] | significantly greater | 277 ± 67 | 354 ± 39 | 350.183 and 323.986 and 542.155 and 300.489 and 279.486 and 328.331 | 408.892 and 291.398 and 513.101 and 87.8703 and 117.804 and 243.201 | 21.7947 and 80.3389 and 37.6766 and 7.854 and 2.348 and 95.5783 | 179.174 and 9.167 and 5.6781 and 5.979 and 3.41 and 2.934 | 5.188 and 2.355 and 8.6025 and 1.698 and 1.3988 and 2.387 | 0.9319 and 4.487 and 3.741 and 0.8649 and 0.1851 and 3.24 | significantly greater | 87 ± 32 | activated TRPA1 | did not differ | 311 ± 60 | 311 ± 11 | 346.049 and 274.809 and 332.645 and 317.863 and 295.869 and 300.839 | 11.624 and 8.016 and 83.7476 and 222.133 and 100.409 and 97.3092 | 5.237 and 1.372 and 11.2552 and 5.494 and 2.231 and 27.0912 | 2.963 and 1.112 and 12.1911 and 2.48 and 2.092 and 1.749 | 0.5786 and 1.167 and 6.112 and 4.171 and 1.807 and 1.825 | Maximal TRPV1 response compared with the highest concentration of capsaicin (human TRPV1): did not differ; TRPV1 response, Mean± SEM (N) (human TRPV1): 354± 56; Change in Ca5 fluorescence, individual experiments (CRC raw data) (human TRPA1; log concentration -7 (M)): 0.7736 and 1.971 and 6.385 and 5.071 and 2.235 and 0.6536; Change of Ca5 fluorescence, Mean ± SEM, EV (10 µM) (HEK-293 EV cells): 11 ± 2%
